A short description of data set [1]: pH and acid/base forms of BCFA in HBSS medium. The data set is classed as physicochemical. The following applies: 5 mM added to HBSS medium. How it is done:
(§1) Before treatments, cell culture medium was replaced by HBSS (Hanks' Balanced Salt Solution; Sigma). Cells were then treated as indicated in the text and directly lysed with Laemmli buffer. For BCFAs and SCFAs treatments, 100 mM stock solutions in water were first prepared from the corresponding acidic form (e.g. isobutyric acid) or from the sodium salt of the corresponding basic form (e.g. sodium isobutyrate) and then further diluted in cell culture media (HBSS). When needed, the pH of cell culture medium was set using either 0.1 M NaOH or 0.1 M HCl solution. […] For TNFα treatments, CACO2 cells were first incubated with BCFAs or SCFAs for 1 hour and then incubated with 100 ng/mL recombinant human TNFα (PeproTech). For immunoblotting and qRT-PCR analyses, cells were lysed after 30 min or 1h of incubation with TNFα, respectively. For Transepithelial electrical resistance (TEER) measurements, cells were incubated for 24 h with TNFα. Viability of cells incubated with HBSS at various pH or with BCFAs was assessed using the CellTiter-Glo® luminescent cell viability assay (Promega), according to the manufacturer's protocol.
BCFAs are weak organic acids, which exist in solution either as acidic (R—COOH) or basic (R—COO^−) forms.

In data set [2] the test system is DSS-treated mice. Put plainly: Fecal calprotectin in DSS mouse model of colitis. Type of data set: in vivo. As to conditions: 2% DSS in drinking water 7 days, 150 mM in drinking water, 3 days after the end of DSS. As for the experimental part:
Eight-weeks-old C57Bl/6JRj male mice (Janvier Labs, Le-Genest-Saint-Isle, France) were housed at 23° C. (5 animals/cage) with a 12-h light-dark cycle in regular open cages. All animals were fed with a non-sterilized standard rodent diet (3430.PM.S10, Serlab, France). Drinking water was not sterilized. Animals were acclimatized to the animal facility for 1 week before experimentations. To monitor the effect of BCFAs on chemically-induced intestinal inflammation, animals were split in three groups (8 animals/group): one group had no treatment, one group was treated with DSS (Dextran Sulfate Sodium, MB Biomedicals, France; 2% in drinking water) from D4 to D11 to induce colitis and one group was treated both with sodium isobutyrate (150 mM in drinking water, pH 7.4; from DO to D13) and DSS (D4 to D11). Fecal pellets were weighted and resuspended in 600 μL of PBS with 1% protease and phosphatase inhibitors (Sigma-Aldrich, USA). After a centrifugation step (12000×g, 15 min, 4° C.), calprotectin was quantified in the obtained supernatants using the S100A8 DuoSet® kit (R&D Systems, Minneapolis), according to the manufacturer's protocol.

In data set [3] the test system is DSS-treated mice. Nature of the data set: Colonic permeability (Lucifer yellow flux, Ussing chambers) in DSS mouse model of colitis. Type of data set: in vivo. As to conditions: 2% DSS in drinking water 7 days, 150 mM in drinking water, three days after the end of DSS. How it is done: Eight-weeks-old C57Bl/6JRj male mice (Janvier Labs, Le-Genest-Saint-Isle, France) were housed at 23° C. (5 animals/cage) with a 12-h light-dark cycle in regular open cages. All animals were fed with a non-sterilized standard rodent diet (3430.PM.S10, Serlab, France). Drinking water was not sterilized. Animals were acclimatized to the animal facility for 1 week before experimentations. To monitor the effect of BCFAs on chemically-induced intestinal inflammation, animals were split in three groups (8 animals/group): one group had no treatment, one group was treated with DSS (Dextran Sulfate Sodium, MB Biomedicals, France; 2% in drinking water) from D4 to D11 to induce colitis and one group was treated both with sodium isobutyrate (150 mM in drinking water, pH 7.4; from DO to D13) and DSS (D4 to D11). Colon samples were cut along the mesenteric border. Colonic permeability was assessed by measuring Lucifer yellow (440 Da; Sigma-aldrich) fluxes in Ussing chambers with an exchange surface of 0.07 cm2 (Harvard Apparatus, Holliston, MA). Lucifer yellow (250 μg/ml) was added to the mucosal side. After 3 h at 37° C., medium from the serosal side was removed and the fluorescence level of Lucifer yellow (excitation: 428 nm; emission: 540 nm) was quantified.

A further data set concerns IκBα. Put plainly: Immunoblot of IκBα levels in TNFα-stimulated CACO2 cells. Type of data set: cell-based. The following applies: 1 hour pre-incubation with 5 mM, then 30 min 100 ng/mL TNFα. How it is done: as §1
Cell lysates and protein extracts from intestinal tissues in Laemmli buffer were boiled for 5 min, sonicated and protein content was resolved using SDS-polyacrylamide gel electrophoresis. Proteins were then transferred on PVDF membranes (GE Healthcare) and detected after incubation with specific antibodies using ECL Clarity Western blotting Substrate (BioRad). […] Quantifications of proteins were performed on a ChemiDoc Imaging System (Bio-rad). SUMO2/3-conjugated proteins levels (above 50 kDa), SUMO1-conjugated protein levels (above 50 kDa), and other specific protein levels were normalized either by the level of total proteins above 50 kDa (determined using the TGX-stain free imaging technology; Bio-rad) or by the level of actin in each lysate.
On the technique in general: A western blot detects proteins with antibodies after separation by electrophoresis.

The subject of another data set is CACO2 cells. Nature of the data set: Luminol-based ROS detection assay in CACO2 cells. The data set is classed as cell-based. How it is done: Luminol was dissolved in NaOH 0.1 M to obtain a 50 mM stock solution. A stock solution of 1000 U/mL HRP (HorseRadish Peroxidase) was prepared in parallel in PBS (Phosphate-Buffered Saline). After treatment with BCFAs or SCFAs or incubation in HBSS at pH 5.2, CACO2 and HeLa culture media were collected and centrifugated for 5 min at 13,000×g at room temperature. The pH of these culture media was then buffered to 7.5 to avoid pH-dependent interferences with luminol activity. Luminol (1 mM final concentration) and HRP (4 U/mL) were finally added to each culture media and luminescence was quantified immediately on a luminometer (Tecan).

Data on one compound can be found in patent US20250127743A1, “USE OF BRANCHED CHAIN FATTY ACIDS (BCFAS) FOR THE TREATMENT OF INTESTINAL INFLAMMATION” (priority 2021, published 2025).

Consider `CC(C)C(=O)[O-].[Na+]` [sodium isobutyrate], for which, in data set [1], the “concentration present as isobutyrate” value was roughly 4990 µM, the “concentration present as isobutyric acid” value is roughly 10 µM, the “pH of HBSS medium after addition” value was roughly 7.5 and the “proportion present as isobutyrate” value was roughly 99.8%. Besides, the “proportion present as isobutyric acid” value in data set [1] was roughly 0.2%. In addition, the “level of fecal calprotectin” value in the data set on DSS-treated mice [2] was “significantly decreases”. The DSS-induced colonic hyperpermeability entry with DSS-treated mice [3] is on record as “significantly decreases”. Besides, the “TNFα-triggered degradation of IκBα” value in the data set with IκBα is reported as “not observed”. Also, the “ROS detection after incubation with sodium salts (basic forms)” value with CACO2 cells is recorded as “no ROS were detected”.
